Laboratory results reported in patent US12234205B1, “Sulfonylhydrazide derivatives as anticancer agents” (KING SAUD UNIVERSITY, priority 2024, dated 2025).

How the values were obtained:
[1] = tested on: A549 NSCLC cell line; assay: Inhibition of A549 NSCLC cell line (sulforhodamine B assay, 72 h); type: cell-based; conditions: Homo sapiens, SRB assay, 72 hours exposure
Description: (§1) IC50 is the concentration at which 50% of the cells were inhibited after treatment with a target compound. SEM is the standard error of means.
Inhibition of A549 NSCLS (Non-Small Cells Lung Cancer) Cell Line
A549 cell lines were obtained from the National Cancer Institute (Cairo, Egypt) and maintained in Roswell Park Memorial Institute medium (RPMI1640) (Invitrogen, Carlsbad, CA, USA) supplemented with […] of streptomycin, 100 units/mL of penicillin and 10% of heat-inactivated fetal bovine serum (Invitrogen) in a humidified, 5% (v/v) CO2 atmosphere at 37° C. The sulforhodamine B (SRB) assays were performed according to Skehan et al 20, 21. Briefly, exponentially growing cells were trypsinized, counted and seeded at the appropriate densities (5000 cells/100 μL/well) into 96-well microtiter plates. Cells were incubated in a humidified atmosphere at 37° C. for 24 h. Then, the cells were exposed to different compounds at the desired concentrations, (0.01, 0.03, 0.1, 0.3, 1, 3, 10, 30 and 100 μM) or to 1% dimethyl sulfoxide (DMSO) for 72 hours. At the end of the treatment period, the media were removed, and the cells were fixed with 10% trichloroacetic acid at 4° C. for 1 h. The cells then were washed with tap water four times and incubated with SRB 0.4% for 30 min. Excess dye was removed by washing repeatedly with 1% (vol/vol) acetic acid. The protein-bound dye was dissolved in 10 mM Tris base solution for OD determination at 510 nm using a SpectraMax plus Microplate Reader (Molecular Devices, CA). Cell viability was expressed relative to the untreated control cells. Statistical analyses were performed using legally licensed GraphPad Prism™ and Instat™ software (GraphPad Inc., La Jolla, CA, USA).

[2] = target: T1, hFAAH (Homo sapiens, UniProt O00519); assay: Inhibition of FAAH activity (Cayman FAAH inhibitor screening assay kit, AMC-arachidonoyl amide hydrolysis, fluorescence); type: biochemical; conditions: 30 min preincubation; for inhibition at 10 µM: 10 μM compound, 37° C., triplicate; for IC50: only compounds with more than 50% inhibition at 10 μM
T1 construct: purchased Cayman Chemicals 10005196
T1 sequence (O00519 1-579): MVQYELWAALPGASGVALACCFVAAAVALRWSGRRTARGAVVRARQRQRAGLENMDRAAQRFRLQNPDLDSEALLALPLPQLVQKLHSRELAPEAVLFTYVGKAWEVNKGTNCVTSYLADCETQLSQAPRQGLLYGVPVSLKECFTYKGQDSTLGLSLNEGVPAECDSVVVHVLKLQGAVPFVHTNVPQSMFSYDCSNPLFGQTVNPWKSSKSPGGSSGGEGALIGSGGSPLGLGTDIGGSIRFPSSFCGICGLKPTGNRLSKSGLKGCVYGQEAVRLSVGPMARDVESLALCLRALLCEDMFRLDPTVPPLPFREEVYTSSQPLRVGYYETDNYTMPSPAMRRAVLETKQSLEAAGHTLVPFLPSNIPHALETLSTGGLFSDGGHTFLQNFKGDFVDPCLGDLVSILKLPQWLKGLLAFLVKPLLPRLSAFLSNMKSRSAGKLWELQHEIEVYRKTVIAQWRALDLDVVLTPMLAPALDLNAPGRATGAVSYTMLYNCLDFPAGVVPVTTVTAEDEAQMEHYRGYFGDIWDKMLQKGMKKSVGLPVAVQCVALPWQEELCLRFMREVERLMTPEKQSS
Description: Inhibition of FAAH Activity
Assay was performed using kits (#10005196) purchased from Cayman Chemicals (Anne Arbor, MI, USA). Ibuprofen was acquired as a generous gift from Tabuk Pharmaceuticals (Tabuk, SA). Doxorubicin was purchased from Sigma (St. Luis, MI, USA). Assay was performed using the FAAH inhibitor screening assay kit from Cayman Chemicals according to the manufacturer's protocol. Release of the fluorescent product, 7-amino-4-methylcoumarin (AMC), from the hydrolysis of AMC-arachidonoyl amide, mediated by FAAH at 37° C., was recorded using a plate reader with an excitation filter of 340-360 nm and an emission filter of 450-465 nm. Inhibitors were preincubated for 30 min at indicated concentrations with the enzyme prior to the addition of substrate to initiate the reaction. Change in fluorescence with time was taken as enzyme activity and the extent of inhibition was calculated from the initial rates. Final DMSO concentration was kept at 2% (v/v) in the assay. Each concentration was repeated three times (Triplicate) to conform to statistical accuracy. Percentage of inhibition at 10 μM was measured for all compounds. Compounds which were able to inhibit the enzyme activity more than 50% at 10 μM were considered eligible for IC50 calculations. For IC50, the inhibition assay was performed at 1.0, 0.1, 0.01, 0.001 and 0.0001 μM concentration of compound under assay. The hFAAH inhibition was calculated as compared to activity observed with vehicle. IC50 values were calculated using Prism v.7.02 for each column separately (singlet concentration). The compound's IC50 was calculated using InStat v.3 software (GraphPad Software, San Diego, CA) which was also used for calculation of standard error of means (SEM). Referring to FIG. 1, inhibition of hFAAH by compound 10 is shown.
as §1

SMILES | IC50 [1] [µM] | inhibition at 10 µM [2] [%] | IC50 [2] [µM]
CC(C)Cc1ccc(C(C)C(=O)NNS(=O)(=O)c2c(C(C)C)cc(C(C)C)cc2C(C)C)cc1 (stereo not drawn) [Compound 5, N′-(2-(4-isobutylphenyl)propanoyl)-2,4, 6 triisopropyl benzene sulfonohydrazide] | 73 | 8.85 | –
CC(=O)c1ccc(S(=O)(=O)NNC(=O)C(C)c2ccc(CC(C)C)cc2)cc1 (stereo not drawn) [Compound 1, 4-acetyl-N′-(2-(4-isobutylphenyl)propanoyl)benzenesulfonohydrazide] | > 100 | 33.6 | –
Cc1ccc(S(=O)(=O)NNC(=O)C(C)c2ccc(CC(C)C)cc2)s1 (stereo not drawn) [Compound 17, N′-(2-(4-isobutylphenyl)propanoyl)-5-methylthiophene-2-sulfonohydrazide] | > 100 | 7.44 | –
Cc1ccc(S(=O)(=O)NNC(=O)C(C)c2ccc(CC(C)C)cc2)cc1 (stereo not drawn) [Compound 2, N′-(2-(4-isobutylphenyl)propanoyl)-4-methylbenzene sulfonohydrazide] | > 100 | 63.5 | 1.46
CC(C)Cc1ccc(C(C)C(=O)NNS(=O)(=O)c2cccs2)cc1 (stereo not drawn) [Compound 15, N′-(2-(4-isobutylphenyl)propanoyl)thiophene-2-sulfonohydrazide] | > 100 | 86.5 | 0.672
CC(C)Cc1ccc(C(C)C(=O)NNS(=O)(=O)c2ccccc2[N+](=O)[O-])cc1 (stereo not drawn) [Compound 3, N′-(2-(4-isobutylphenyl)propanoyl)-2-nitrobenzenesulfonohydrazide] | 55.6 | 45.5 | –
COc1ccc(S(=O)(=O)NNC(=O)C(C)c2ccc(CC(C)C)cc2)cc1OC (stereo not drawn) [Compound 14, N′-(2-(4-isobutylphenyl)propanoyl)-3,4-dimethoxybenzene sulfonohydrazide] | > 100 | 23.8 | –
CC(C)Cc1ccc(C(C)C(=O)NNS(=O)(=O)c2ccc(Br)cc2)cc1 (stereo not drawn) [Compound 13, 4-Bromo-N′-(2-(4-isobutylphenyl)propanoyl)benzenesulfonohydrazide] | > 100 | 48.7 | –
CC(C)Cc1ccc(C(C)C(=O)NNS(=O)(=O)Cc2ccccc2)cc1 (stereo not drawn) [Compound 20, N′-(2-(4-isobutylphenyl)propanoyl)-1-phenylmethanesulfonohydrazide] | > 100 | 44.2 | –
CC(C)Cc1ccc(C(C)C(=O)NNS(=O)(=O)c2ccc(C(F)(F)F)nc2)cc1 (stereo not drawn) [Compound 19, N′-(2-(4-isobutylphenyl)propanoyl)-6-(trifluoromethyl)pyridine-3sulfonohydrazide] | > 100 | 40.5 | –
CC(C)Cc1ccc(C(C)C(=O)NNS(=O)(=O)c2ccc(-c3ccccc3)cc2)cc1 (stereo not drawn) [Compound 10, N′-(2-(4-isobutylphenyl)propanoyl)-[1, 1′-biphenyl]-4-sulfonohydrazide] | 0.291 | 98.1 | 0.0056
Cc1ccc(-c2ccc(S(=O)(=O)NNC(=O)C(C)c3ccc(CC(C)C)cc3)cc2)cc1 (stereo not drawn) [Compound 11, N′-(2-(4-isobutylphenyl)propanoyl)-4′-methyl-[1, 1′-biphenyl]-4-sulfonohydrazide] | 16 | 95.3 | 0.072
CC(C)Cc1ccc(C(C)C(=O)NNS(=O)(=O)c2ccccc2)cc1 (stereo not drawn) [Compound 9, N′-(2-(4-isobutylphenyl)propanoyl) benzenesulfonohydrazide] | 46.4 | 99.9 | 0.144
CC(C)Cc1ccc(C(C)C(=O)NNS(=O)(=O)c2cccc(C(F)(F)F)c2)cc1 (stereo not drawn) [Compound 7, N′-(2-(4-isobutylphenyl)propanoyl)-3-(trifluoromethyl) benzene sulfonohydrazide] | > 100 | 36.1 | –
CC(C)Cc1ccc(C(C)C(=O)NNS(=O)(=O)c2cccnc2)cc1 (stereo not drawn) [Compound 18, N′-(2-(4-isobutylphenyl)propanoyl)pyridine-3-sulfonohydrazide] | > 100 | 58.6 | 4.01
CC(C)Cc1ccc(C(C)C(=O)NNS(=O)(=O)c2ccc3ccccc3c2)cc1 (stereo not drawn) [Compound 4, N′-(2-(4-isobutylphenyl)propanoyl)naphthalene-2-sulfonohydrazide] | 53 | 87.8 | 0.179
CC(C)Cc1ccc(C(C)C(=O)NNS(=O)(=O)c2ccc(C(F)(F)F)cc2)cc1 (stereo not drawn) [Compound 8, N′-(2-(4-isobutylphenyl)propanoyl)-4-(trifluoromethyl) benzene sulfonohydrazide] | 40.1 | 74 | 1.2
CC(C)Cc1ccc(C(C)C(=O)O)cc1 (stereo not drawn) [Ibuprofen, reference compound] | – | 10 | –
COc1cccc2c1C(=O)c1c(O)c3c(c(O)c1C2=O)C[C@@](O)(C(=O)CO)C[C@@H]3O[C@H]1C[C@H](N)[C@H](O)[C@H](C)O1 [Doxorubicin, reference compound] | 2.28 | – | –
CC(C)Cc1ccc(C(C)C(=O)NNS(=O)(=O)C(Br)c2ccccc2)cc1 (stereo not drawn) [Compound 6, 1-Bromo-N′-(2-(4-isobutylphenyl)propanoyl)-1-phenylmethane sulfonohydrazide] | > 100 | 20.6 | –
CC(C)Cc1ccc(C(C)C(=O)NNS(=O)(=O)c2ccc(Br)s2)cc1 (stereo not drawn) [Compound 16, 5-Bromo-N′-(2-(4-isobutylphenyl)propanoyl) thiophene-2-sulfonohydrazide] | > 100 | 28.4 | –
COc1ccc(-c2ccc(S(=O)(=O)NNC(=O)C(C)c3ccc(CC(C)C)cc3)cc2)cc1 (stereo not drawn) [Compound 12, N′-(2-(4-isobutylphenyl)propanoyl)-4′-methoxy-[1, 1′-biphenyl]-4sulfonohydrazide] | 11.7 | 99 | 0.141
